One may read the IC50 as the point on the concentration scale where inhibition reaches its midpoint.

Our source for the IC50 values is patent US12679832B2, “Compounds and their uses as CD38 inhibitors” (Nanjing Immunophage Biotech Co., Ltd., priority 2021, dated 2026).

This assay deals with T1, hCD38 Enzyme (Homo sapiens, UniProt P28907).
T1 construct: purchased Sino Biological Inc 10818-H08H
T1 sequence (P28907 43-300 limits assumed): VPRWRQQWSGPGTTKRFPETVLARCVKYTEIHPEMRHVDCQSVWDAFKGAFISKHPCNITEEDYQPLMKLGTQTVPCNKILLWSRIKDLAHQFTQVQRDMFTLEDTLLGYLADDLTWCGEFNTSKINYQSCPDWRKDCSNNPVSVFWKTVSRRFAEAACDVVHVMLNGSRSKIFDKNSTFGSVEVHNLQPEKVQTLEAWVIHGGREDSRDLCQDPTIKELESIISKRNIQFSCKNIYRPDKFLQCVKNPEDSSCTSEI
Briefly: CD38 hydrolase enzymatic assay. Type of assay: biochemical. The following applies: rhCD38, ε-NAD substrate, 25° C., point reading time 20 mins; read-out: hCD38 Enzyme inhibition IC50.
In the case of `O=C(Nc1cc(F)cc(N2CCNCC2)c1)c1cc(C(F)(F)F)nc(-n2ccnc2)n1` [compound 175, N-(3-fluoro-5-(piperazin-1-yl)phenyl)-2-(1H-imidazol-1-yl)-6-(trifluoromethyl) pyrimidine-4-carboxamide], the IC50 came to 68 nM.
In the case of `O=C(Nc1cc(F)cc(N2CCOCC2)c1)c1cc(C(F)(F)F)nc(-n2ccnc2)n1` [compound 176, N-(3-fluoro-5-morpholinophenyl)-2-(1H-imidazol-1-yl)-6-(trifluoromethyl) pyrimidine-4-carboxamide] it was 20 nM.
In the case of `O=C(Nc1cccc(N2CCOCC2)c1)c1cc(C(F)(F)F)nc(-n2ccnc2)n1` [compound 177, 2-(1H-imidazol-1-yl)-N-(3-morpholinophenyl)-6-(trifluoromethyl) pyrimidine-4-carboxamide] it was 38 nM; in that of `O=C(Nc1cc(F)cc(N2CC[C@H](O)C2)c1)c1cc(C(F)(F)F)nc(-n2ccnc2)n1` [compound 178, (S)-N-(3-fluoro-5-(3-hydroxypyrrolidin-1-yl)phenyl)-2-(1H-imidazol-1-yl)-6-(trifluoromethyl) pyrimidine-4-carboxamide], 17.3 nM; in that of `COC(C)(C)c1cc(F)cc(NC(=O)c2cc(C(F)(F)F)nc(-n3ccnc3)n2)c1` [compound 179, N-(3-fluoro-5-(2-methoxypropan-2-yl)phenyl)-2-(1H-imidazol-1-yl)-6-(trifluoromethyl) pyrimidine-4-carboxamide], 586 nM.
In the case of `CN(C)CCOc1cc(F)cc(NC(=O)c2cc(C(F)(F)F)nc(-n3ccnc3)n2)c1` [compound 181, N-(3-(2-(dimethylamino)ethoxy)-5-fluorophenyl)-2-(1H-imidazol-1-yl)-6-(trifluoromethyl) pyrimidine-4-carboxamide] it was 25.4 nM; in that of `CO[C@H]1CC[C@H](NC(=O)c2cc(-c3ccncc3)nc(-n3ccnc3)n2)CC1` [compound 183, 2-(1H-imidazol-1-yl)-N-((1r,4r)-4-methoxycyclohexyl)-6-(pyridin-4-yl) pyrimidine-4-carboxamide], 28 nM.
For `N#Cc1cc(C(=O)Nc2cccc(F)c2)nc(-n2ccnc2)n1` [compound 185, 6-cyano-N-(3-fluorophenyl)-2-(1H-imidazol-1-yl) pyrimidine-4-carboxamide], the IC50 came out at 2 nM.
For the compound `N#Cc1cc(C(=O)Nc2cccnc2)nc(-n2ccnc2)n1` [compound 186, 6-cyano-2-(1H-imidazol-1-yl)-N-(pyridin-3-yl)pyrimidine-4-carboxamide], the IC50 is 2 nM.
In the case of `N#Cc1cc(C(=O)Nc2ccc(F)cc2)nc(-n2ccnc2)n1` [compound 187, 6-cyano-N-(4-fluorophenyl)-2-(1H-imidazol-1-yl)pyrimidine-4-carboxamide] it was 2 nM; in that of `N#Cc1cc(C(=O)Nc2cncnc2)nc(-n2ccnc2)n1` [compound 189, 6-cyano-2-(1H-imidazol-1-yl)-N-(pyrimidin-5-yl)pyrimidine-4-carboxamide], 12 nM.
In the case of `O=C(Nc1ccncc1)c1cc(C(F)(F)F)cc(-n2ccnc2)n1` [compound 190, 6-(1H-imidazol-1-yl)-N-(pyridin-4-yl)-4-(trifluoromethyl) picolinamide], the IC50 came out at 2.8 nM.
In the case of `O=C(Nc1cccnc1)c1cc(C(F)(F)F)cc(-n2ccnc2)n1` [compound 191, 6-(1H-imidazol-1-yl)-N-(pyridin-3-yl)-4-(trifluoromethyl) picolinamide] it was 3.8 nM; in that of `O=C(Nc1cncnc1)c1cc(C(F)(F)F)cc(-n2ccnc2)n1` [compound 192, 6-(1H-imidazol-1-yl)-N-(pyrimidin-5-yl)-4-(trifluoromethyl) picolinamide], 6.1 nM.
On to `O=C(Nc1cnc(OCCO)nc1)c1cc(C(F)(F)F)nc(-n2ccnc2)n1` [compound 193, N-(2-(2-hydroxyethoxy)pyrimidin-5-yl)-2-(1H-imidazol-1-yl)-6-(trifluoromethyl) pyrimidine-4-carboxamide], for which the IC50 came out at 11 nM.
In the case of `O=C(O)COc1ncc(NC(=O)c2cc(C(F)(F)F)nc(-n3ccnc3)n2)cn1` [compound 194, 2-((5-(2-(1H-imidazol-1-yl)-6-(trifluoromethyl)pyrimidine-4-carboxamido)pyrimidin-2-yl)oxy) acetic acid] it was 30 nM.
